Test results taken from patent publication US8937167B2 (Washington University, priority 2009, dated 2015).
pIC50: −log10 of the molar value. Read-outs that look alike come from different tables or passages of the source.

Legend:
UTI89 biofilm = test: UTI89 type 1 dependent biofilm formation (inhibition/prevention) assay on PVC, crystal violet; format: cell-based, uropathogenic E. coli UTI89; conditions: Escherichia coli
Protocol: In yet other embodiments, activity of the compound may be measured using the ability of the compound to prevent or disrupt biofilm formation.
UTI89 biofilm was grown in LB+/− mannoside for 24 h at 22° C. in PVC plates and quantitated using crystal violet. UTI89 biofilm for confocal microscopy was grown in LB for 24 h at 22° C. on PVC coverslips. Mannoside was then added and biofilm was grown for an additional 16 h. Coverslips were then washed in PBS, fixed in 2% paraformaldehyde and stained with SYTO9 prior to confocal microscopy. For all animal experiments UTI89 or PBC-1 was grown 2×24 h statically in LB at 37° C. and inoculated at a dose of 1×10^7 bacteria in 50 μl. All mice used were female C3H/HeN (Jackson). For the pretreatment studies, bacteria were incubated with mannoside for 20 min prior to inoculation into the mouse. […] For CFU counts, bladders were harvested at 6 hpi and placed in 1 mL PBS. Bladders were then homogenized, diluted and plated on LB. After growth at 37° C. overnight, bacterial counts were determined. LacZ staining and gentamicin protection assays were performed at 6 hpi. […] Water was changed daily with fresh antibiotics. Standard growth curve assays and hemagglutination assays were performed with TMP-SMZ. All statistical analysis performed was a two-tailed Mann-Whitney U test.
Biofilm assay. UTI89 was grown in LB broth in wells of PVC microtiter plates at 23° C. in the presence of individual mannosides at varying concentrations. After 48 h of growth, wells were rinsed with water and stained with crystal violet for quantification as described. For biofilm disruption activity in PVC plates, UTI89 was grown in LB broth in wells of PVC microtiter plates at 23° C. After 24 h of growth, mannoside was added and biofilms were grown for an additional 16 h. Wells were then rinsed, stained with crystal violet and quantified. For biofilm disruption activity on PVC coverslips, UTI89 was grown in LB broth in 50 mL conicals containing PBC coverslips at 23° C. After 24 h of growth, 0.3 μM ZFH-2056 was added and biofilm was grown for an additional 16 h.
UTI89 biofilm was grown in LB+/− mannoside for 24 h at 22° C. in PVC plates and quantified using crystal violet. UTI89 biofilm for confocal microscopy was grown in LB for 24 h at 22° C. on PVC coverslips followed by mannoside treatment for 16 h. For all animal experiments UTI89 or PBC-1 was grown 2×24 h statically in LB at 37° C. and inoculated at a dose of 1×10^7 bacteria in 50 μl. All mice used were female C3H/HeN (Harlan). For the chronic UTI model, mice were infected for 2 weeks prior to treatment with mannoside. […] For oral dosing, 100 μl of 10 mg/ml (50 mg/kg) or 20 mg/ml (100 mg/kg) mannoside in 8% DMSO was inoculated with a gavage needle 30 min prior to inoculation of bacteria. […] For CFU counts, bladders were harvested at 6 hpi and placed in 1 mL PBS. Bladders were then homogenized, diluted and plated on LB. After growth at 37° C. overnight, bacterial counts were determined. LacZ staining and gentamicin protection assays were performed at 6 hpi. […] Water was changed daily with fresh antibiotics. Standard growth curve and hemagglutination assays were performed. All statistical analysis performed was a two-tailed Mann-Whitney U test. […] Compounds 7-10 were prepared using slightly modified procedures. All compounds are >95% pure as determined by HPLC/MS and ^1H NMR.
UTI89 was grown in LB broth in wells of PVC microtiter plates at 23° C. in the presence of individual mannosides at varying concentrations. After 48 h of growth, wells were rinsed with water and stained with crystal violet for quantification as described. For biofilm disruption activity in PVC plates, UTI89 was grown in LB broth in wells of PVC microtiter plates at 23° C. After 24 h of growth, mannoside was added and biofilms were grown for an additional 16 h. Wells were then rinsed, stained with crystal violet and quantified. […]

FimH = FimH (Escherichia coli, UniProt Q1R2J4); conditions: for HAI Titer EC>50: Table 21;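 for all read-outs here: hemagglutination inhibition of guinea pig erythrocytes agglutinated by type 1 piliated uropathogenic E. coli via FimH mannose binding, quantified through serial dilutions of compound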
[1] = read-out: Biofilm Prevention IC50
[2] = read-out: Biofilm IC50 (approximated)

SMILES: Cc1cc(=O)oc2cc(OC3OC(CO)C(O)C(O)C3O)ccc12 [4-methylumbellferyl-α-D-mannoside, reference compound]
- pIC50 (UTI89 biofilm; read-out: Biofilm IC50 [calculated]): 5.77

SMILES: COC(=O)c1sc(-c2ccc(OC3OC(CO)C(O)C(O)C3O)cc2)cc1NC(N)=O (centres unmarked) [Compound 4ZFH52]
- pIC50 (UTI89 biofilm; [1]): 6.74
- HAI Titer EC>50 (FimH; ZFH/JWJ codes): 0.016 µM

SMILES: COC(=O)c1cccc(-c2ccc(OC3O[C@@H](CO)[C@@H](O)[C@H](O)[C@H]3O)c(C)c2)c1 (stereo partly drawn) [Compound 4ZFH224, methyl 3-[3-methyl-4-[(3R,4S,5S,6S)-3,4,5-trihydroxy-6-(hydroxymethyl)tetrahydropyran-2-yl]oxy-phenyl]benzoate]
- pIC50 (UTI89 biofilm; [1]): 6.48
- HAI Titer EC>90 (FimH): 0.125 µM
- HAI Titer EC>50 (FimH; ZFH/JWJ codes): 0.125 µM
- HAI Titer EC>90 (FimH; Table 22, ZFH/JWJ codes): 0.125 µM

SMILES: CNC(=O)c1cccc(-c2ccc(OC3O[C@@H](CO)[C@@H](O)[C@H](O)[C@H]3O)c(Cl)c2)c1 (stereo partly drawn) [Compound 4ZFH170, 3-[3-chloro-4-[(3R,4S,5S,6S)-3,4,5-trihydroxy-6-(hydroxymethyl)tetrahydropyran-2-yl]oxy-phenyl]-N-methyl-benzamide]
- pIC50 (UTI89 biofilm; [1]): 6.28
- HAI Titer EC>90 (FimH): 0.125 µM
- HAI Titer EC>50 (FimH; ZFH/JWJ codes): 0.125 µM
- HAI Titer EC>90 (FimH; Table 22, ZFH/JWJ codes): 0.125 µM

SMILES: CCCCOC1OC(CO)C(O)C(O)C1O (centres unmarked) [Compound 1ZFH84]
- pIC50 (UTI89 biofilm; [1]): ~3.30
- HAI Titer EC>50 (FimH; ZFH/JWJ codes): 125.000 µM

SMILES: O=C1Cc2cc(OC3OC(CO)C(O)C(O)C3O)ccc2O1 (centres unmarked) [Compound 1ZFH231, 5-[3,4,5-trihydroxy-6-(hydroxymethyl)tetrahydropyran-2-yl]oxy-3H-benzofuran-2-one]
- pIC50 (UTI89 biofilm; [2]): ~4.60
- HAI Titer EC>90 (FimH): 8.000 µM

SMILES: COC(=O)c1cccc(-c2ccc(O[C@H]3O[C@H](CO)[C@@H](O)[C@H](O)[C@@H]3O)c(OC)c2)c1 [Compound 4e, Methyl 3-[3-methoxy-4-[(2R,3S,4S,5S,6R)-3,4,5-trihydroxy-6-(hydroxymethyl)tetrahydropyran-2-yl]oxy-phenyl]benzoate]
- pIC50 (UTI89 biofilm; [1]): 6.05
- HAI Titer EC>90 (FimH; Table 17, Examples 30-36 numbering): 0.19 µM

SMILES: COC(=O)Cc1ccc(OC2OC(CO)C(O)C(O)C2O)cc1 (centres unmarked) [Compound 1ZFH171, methyl 2-[4-[3,4,5-trihydroxy-6-(hydroxymethyl)tetrahydropyran-2-yl]oxyphenyl]acetate]
- pIC50 (UTI89 biofilm; [2]): ~4.00
- HAI Titer EC>90 (FimH): 30.000 µM

SMILES: CN(C)C(=O)c1cccc(-c2ccc(OC3OC(CO)C(O)C(O)C3O)cc2)c1 (centres unmarked) [JJ-I-93, N,N-dimethyl-3-[4-[3,4,5-trihydroxy-6-(hydroxymethyl)tetrahydropyran-2-yl]oxyphenyl]benzamide]
- HAI Titer EC>90 (FimH): 3.000 µM

SMILES: O=C(c1ccccc1)c1cccc(OC2OC(CO)C(O)C(O)C2O)c1 (centres unmarked) [Compound 1ZFH263, phenyl-[3-[3,4,5-trihydroxy-6-(hydroxymethyl)tetrahydropyran-2-yl]oxyphenyl]methanone]
- HAI Titer EC>90 (FimH): 8.000 µM

SMILES: NC(=O)Nc1csc(-c2ccc(O[C@H]3O[C@H](CO)[C@@H](O)[C@H](O)[C@@H]3O)cc2)c1 [Compound 13c, [5-[4-[(2R,3S,4S,5S,6R)-3,4,5-Trihydroxy-6-(hydroxymethyl)tetrahydropyran-2-yl]oxyphenyl]-3-thienyl]urea]
- HAI Titer EC>90 (FimH; Table 19, Examples 30-36 numbering): 1.0 µM

SMILES: COC(=O)c1cc(-c2ccc(OC3OC(CO)C(O)C(O)C3O)cc2)ccc1NC(C)=O (centres unmarked) [Compound 4ZFH308]
- HAI Titer EC>50 (FimH; ZFH/JWJ codes): 0.250 µM

SMILES: N#Cc1cccc(-c2ccc(OC3OC(CO)C(O)C(O)C3O)cc2)c1 (centres unmarked) [Compound 3ZFH68, 3-[4-[3,4,5-trihydroxy-6-(hydroxymethyl)tetrahydropyran-2-yl]oxyphenyl]benzonitrile]
- HAI Titer EC>90 (FimH): 1.000 µM

SMILES: CN1CCN(C(=O)c2cccc(-c3ccc(OC4OC(CO)C(O)C(O)C4O)cc3)c2)CC1 (centres unmarked) [Compound 3ZFH261, (4-methylpiperazin-1-yl)-[3-[4-[3,4,5-trihydroxy-6-(hydroxymethyl)tetrahydropyran-2-yl]oxyphenyl]phenyl]methanone]
- HAI Titer EC>90 (FimH): 4.000 µM

SMILES: CC(=O)Nc1ccc(-c2ccc(OC3OC(CO)C(O)C(O)C3O)cc2)cc1C(=O)O (centres unmarked) [Compound 4ZFH306]
- HAI Titer EC>50 (FimH; ZFH/JWJ codes): 0.750 µM

SMILES: OCc1cccc(-c2ccc(OC3OC(CO)C(O)C(O)C3O)cc2)c1 (centres unmarked) [Compound 3ZFH18, 2-(hydroxymethyl)-6-[4-[3-(hydroxymethyl)phenyl]phenoxy]tetrahydropyran-3,4,5-triol]
- HAI Titer EC>90 (FimH): 3.000 µM

SMILES: OCc1ccc(-c2ccc(OC3OC(CO)C(O)C(O)C3O)cc2)cc1 (centres unmarked) [Compound 3ZFH24, 2-(hydroxymethyl)-6-[4-[4-(hydroxymethyl)phenyl]phenoxy]tetrahydropyran-3,4,5-triol]
- HAI Titer EC>90 (FimH): 6.000 µM

SMILES: COC(=O)c1cc2cc(OC3OC(CO)C(O)C(O)C3O)ccc2s1 (centres unmarked) [Compound 2ZFH297, methyl 5-[3,4,5-trihydroxy-6-(hydroxymethyl)tetrahydropyran-2-yl]oxybenzothiophene-2-carboxylate]
- HAI Titer EC>90 (FimH): 2.000 µM

SMILES: CNC(=O)c1cccc(-c2ccc([C@@H](O)C3OC(CO)C(O)C(O)C3O)cc2)c1 (some centres unmarked) [Compound 5ZFH38]
- HAI Titer EC>50 (FimH; ZFH/JWJ codes): 0.250 µM

SMILES: COC(=O)c1ccc(-c2cccc(OC3OC(CO)C(O)C(O)C3O)c2)cc1 (centres unmarked) [Compound 1ZFH265, methyl 4-[3-[3,4,5-trihydroxy-6-(hydroxymethyl)tetrahydropyran-2-yl]oxyphenyl]benzoate]
- HAI Titer EC>90 (FimH): 6.000 µM

SMILES: COC(=O)c1cccc(OC2OC(CO)C(O)C(O)C2O)c1 (centres unmarked) [Compound 3j]
- fold loss of HA potency (FimH; carboxylic acid relative to matched pair methyl ester 3j): 10 fold

SMILES: OCC1OC(Oc2cc(F)c(F)c(F)c2)C(O)C(O)C1O (centres unmarked) [Compound 1ZFH282, 2-(hydroxymethyl)-6-(3,4,5-trifluorophenoxy)tetrahydropyran-3,4,5-triol]
- HAI Titer EC>90 (FimH): 125.000 µM

SMILES: CNC(=O)c1cc(C(=O)NC)cc(-c2ccc(OC3O[C@@H](CO)[C@@H](O)[C@H](O)[C@H]3O)c(C)c2)c1 (stereo partly drawn) [Compound 4ZFH284, N1,N3-dimethyl-5-[3-methyl-4-[(3R,4S,5S,6S)-3,4,5-trihydroxy-6-(hydroxymethyl)tetrahydropyran-2-yl]oxy-phenyl]benzene-1,3-dicarboxamide]
- HAI Titer EC>90 (FimH): 0.016 µM
- HAI Titer EC>50 (FimH; ZFH/JWJ codes): 0.016 µM
- HAI Titer EC>90 (FimH; Table 22, ZFH/JWJ codes): 0.016 µM

SMILES: O=C(NCCCCOC1OC(CO)C(O)C(O)C1O)c1ccc(C(=O)O)c(-c2c3ccc(=O)cc-3oc3cc(O)ccc23)c1 (centres unmarked) [Compound 1ZFH134A, 2-(3-hydroxy-6-oxo-xanthen-9-yl)-4-[4-[3,4,5-trihydroxy-6-(hydroxymethyl)tetrahydropyran-2-yl]oxybutylcarbamoyl]benzoic acid]
- HAI Titer EC>90 (FimH): 125.000 µM

SMILES: N#Cc1ccccc1OC1OC(CO)C(O)C(O)C1O (centres unmarked) [Compound 2ZFH108, 2-[3,4,5-trihydroxy-6-(hydroxymethyl)tetrahydropyran-2-yl]oxybenzonitrile]
- HAI Titer EC>90 (FimH): 6.000 µM
